target: T1, recombinant human cytosolic PEPCK (Homo sapiens, UniProt P35558); test: PEPCK enzyme assay (coupled pyruvate kinase/lactate dehydrogenase, absorbance at 340); assay type: biochemical; conditions: recombinant human cytosolic GST-PEPCK; GTP and OAA at 3 fold and 10 fold Km; final DMSO 10%; room temperature, twenty minutes; read-out: In vitro IC50
T1 sequence (P35558 1-622): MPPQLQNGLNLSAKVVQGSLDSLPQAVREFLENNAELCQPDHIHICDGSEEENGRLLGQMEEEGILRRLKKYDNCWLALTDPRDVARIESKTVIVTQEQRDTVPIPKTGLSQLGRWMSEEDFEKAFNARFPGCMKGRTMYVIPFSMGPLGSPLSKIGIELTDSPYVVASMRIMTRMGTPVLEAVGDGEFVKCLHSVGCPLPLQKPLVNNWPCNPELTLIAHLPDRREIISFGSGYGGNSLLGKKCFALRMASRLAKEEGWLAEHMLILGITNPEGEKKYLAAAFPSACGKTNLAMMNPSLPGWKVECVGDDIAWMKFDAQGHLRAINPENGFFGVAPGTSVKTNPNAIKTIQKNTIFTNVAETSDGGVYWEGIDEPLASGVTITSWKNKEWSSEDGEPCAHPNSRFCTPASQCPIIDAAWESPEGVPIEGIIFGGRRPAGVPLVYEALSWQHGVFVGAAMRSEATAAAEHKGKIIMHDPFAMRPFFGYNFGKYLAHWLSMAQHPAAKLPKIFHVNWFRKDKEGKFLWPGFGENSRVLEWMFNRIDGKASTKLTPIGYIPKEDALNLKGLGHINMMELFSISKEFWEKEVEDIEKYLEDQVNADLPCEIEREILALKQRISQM
Method: E. coli cells expressing GST-PEPCK were suspended in 5 volumes of lysis buffer (50 mM Tris-hydroxymethyl aminomethyl (TRIS), 150 mM sodium chloride (NaCl), 10 mM ethylene-diametetraacetic acid (EDTA), 5 mM dithiothreitol(DTT), 1% Nonidet P-40, pH 7.4) in the presence of protease inhibitors, incubated with lysozyme at 200 micrograms/ml for 30 min. at room temperature, and sonicated 4×30 seconds at 4 degrees C. After centrifugation at 12,000×g for 20 min. to remove insoluble material, the supernatant was loaded onto glutathione Sepharose (Pharmacia), washed with lysis buffer followed by washing with lysis buffer in the absence of NP-40. GST-PEPCK was eluted with the same buffer containing 20 mM glutathione. The eluted protein was concentrated and dialyzed against 25 mM Hepes(N-[2-hydroxyethyl]piperazine-N′[2-ethanesulfonic acid), 150 mM NaCl, 2.5 mM EDTA, 5 mM DTT, 30% glycerol, pH 7.4, and stored at −20 ° C.
The inhibitory effect of the compounds of the present invention on PEPCK enzymatic activity was determined using recombinant human cytosolic PEPCK, expressed and purified from E.coli as a GST-fusion. Guanosine triphosphate (GTP) and manganese dependent PEPCK enzyme activity catalyzed the decarboxylation of oxalacetate leading to the formation of guanosine diphosphate (GDP) and phosphoenol pyruvate (PEP). This reaction is coupled to pyruvate kinase and lactate dehydrogenase catalyzed reactions and the overall reaction rate determined by measuring the change in absorbance at 340 nm (Chang, H. C. and Lane M. D., J. Biol.Chem. 241:2413–2420, 1966). The following modifications were made to the protocol: 2.5 μg of recombinant, human cytosolic glutathione-S-transferase (GST)-PEPCK was added to a reaction mixture at room temperature which contained 0.3 mM GTP, 0.3 mM oxaloacetate (OAA), 3 mM magnesium chloride (MgCl2), 0.075 mM manganese chloride (MnCl2), 30 mM potassium phosphates (KPO4), pH 7.6, 1 mM dithiothreitol (DTT), 0.2 mM adenosine diphosphate (ADP), 1 mM nicotinamide adenine dinucleotide, reduced form (NADH), 0.9 Units/ml each of pyruvate kinase and lactate dehydrogenase and 1 mg/ml bovine serum albumin (BSA). Test compounds were added such that final concentration of DMSO was 10%. Reactions were run for twenty minutes.
Km values for GTP and OAA were determined according to Michelis-Menton conditions as described in Cornish-Bowden (Fundamentals of Enzyme Kinetics, 1995) in essentially the coupled assay conditions described above. […] Test compounds were added to reactions over a range of concentrations and IC50's were calculated from plots of inhibitor concentration versus enzyme rate. This method of determination of IC50 values is equally applicable to calculations based on PEPCK cellular assay.
The in vitro biological activity of several representative preferred compounds of the present invention in the foregoing PEPCK enzymatic assay is presented in Table 1.

SMILES	IC50 [nM]
Cc1ccc(C(=O)N(C)c2ccc(Cc3nc4c([nH]3)c(=O)n(Cc3ccccc3F)c(=O)n4CC3CC3)cc2)cn1 [Example 86, N-{4-[3-cyclopropylmethyl-1-(2-fluorobenzyl)-2,6-dioxo-2,3,6,7-tetrahydro-1H-purin-8-ylmethyl]-phenyl}-6,N-dimethyl-nicotinamide]	420
Cc1nc(N)sc1C(=O)N(C)c1ccc(Cc2nc3c([nH]2)c(=O)n(Cc2ccccc2F)c(=O)n3CC2CC2)cc1 [Example 106, 2-Amino-4-methyl-thiazole-5-carboxylic acid {4-[3-cyclopropylmethyl-1-(2-fluorobenzyl)-2,6-dioxo-2,3,6,7-tetrahydro-1H-purin-8-ylmethyl]-phenyl}-methyl-amide]	370
Cc1cncc(C(=O)N(C)c2ccc(Cc3nc4c([nH]3)c(=O)n(Cc3ccccc3F)c(=O)n4CC3CC3)cc2)c1 [Example 85, N-{4-[3-cyclopropylmethyl-1-(2-fluorobenzyl)-2,6-dioxo-2,3,6,7-tetrahydro-1H-purin-8-ylmethyl]-phenyl}-5,N-dimethyl-nicotinamide]	400
Cc1ncccc1C(=O)N(C)c1ccc(Cc2nc3c([nH]2)c(=O)n(Cc2ccccc2F)c(=O)n3CC2CC2)cc1 [Example 95, N-{4-[3-Cyclopropylmethyl-1-(2-fluorobenzyl)-2,6-dioxo-2,3,6,7-tetrahydro-1H-purin-8-ylmethyl]-phenyl}-2,N-dimethyl-nicotinamide]	370
CN(C(=O)Cc1cccnc1)c1ccc(Cc2nc3c([nH]2)c(=O)n(Cc2ccccc2F)c(=O)n3CC2CC2)cc1 [Example 91, N-{4-[3-cyclopropylmethyl-1-(2-fluorobenzyl)-2,6-dioxo-2,3,6,7-tetrahydro-1H-purin-8-ylmethyl]-phenyl}-N-methyl-2-pyridin-3-yl-acetamide]	410
Cc1nc(C)c(C(=O)N(C)c2ccc(Cc3nc4c([nH]3)c(=O)n(Cc3ccccc3F)c(=O)n4CC3CC3)cc2)s1 [Example 105, 2,4-Dimethyl-thiazole-5-carboxylic acid {4-[3-cyclopropylmethyl-1-(2-fluorobenzyl)-2,6-dioxo-2,3,6,7-tetrahydro-1H-purin-8-ylmethyl]-phenyl}-methyl-amide]	320
CN(C(=O)c1cccnc1N)c1ccc(Cc2nc3c([nH]2)c(=O)n(Cc2ccccc2F)c(=O)n3CC2CC2)cc1 [Example 93, 2-Amino-N-{4-[3-cyclopropylmethyl-1-(2-fluorobenzyl)-2,6-dioxo-2,3,6,7-tetrahydro-1H-purin-8-ylmethyl]-phenyl}-N-methyl-nicotinamide]	280

Now from value to compound:

IC50 [nM]	SMILES
930	CC(=O)Nc1ccc(Cc2nc3c([nH]2)c(=O)n(Cc2ccccc2F)c(=O)n3CC2CC2)cc1 [Example 42, N-{4-[3-Cyclopropylmethyl-1-(2-fluorobenzyl)-2,6-dioxo-2,3,6,7-tetrahydro-1H-purin-8-ylmethyl]-phenyl}-acetamide]
340	CN(C(=O)c1ccc(N)nc1)c1ccc(Cc2nc3c([nH]2)c(=O)n(Cc2ccccc2F)c(=O)n3CC2CC2)cc1 [Example 94, 6-Amino-N-{4-[3-cyclopropylmethyl-1-(2-fluorobenzyl)-2,6-dioxo-2,3,6,7-tetrahydro-1H-purin-8-ylmethyl]-phenyl}-N-methyl-nicotinamide]
500	Cc1nn(C)cc1C(=O)N(C)c1ccc(Cc2nc3c([nH]2)c(=O)n(Cc2ccccc2F)c(=O)n3CC2CC2)cc1 [Example 107, 1,3-Dimethyl-1H-pyrazole-4-carboxylic acid {4-[3-cyclopropylmethyl-1-(2-fluorobenzyl)-2,6-dioxo-2,3,6,7-tetrahydro-1H-purin-8-ylmethyl]-phenyl}-methyl-amide]
570	Cc1nocc1C(=O)N(C)c1ccc(Cc2nc3c([nH]2)c(=O)n(Cc2ccccc2F)c(=O)n3CC2CC2)cc1 [Example 109, 3-Methyl-isoxazole-4-carboxylic acid {4-[3-cyclopropylmethyl-1-(2-fluorobenzyl)-2,6-dioxo-2,3,6,7-tetrahydro-1H-purin-8-ylmethyl]-phenyl}-methyl-amide]

From patent publication US7135475B2, “Amide substituted xanthine derivatives” (Hoffmann-La Roche Inc., priority 2002, dated 2006)
